These results are taken from paper PMC13608006 (Journal of medicinal chemistry, 2018).

The test system of one assay is CV-B3 (CVB3-H3). The assay is classed as cell-based, coxsackievirus B3. The conditions noted are these: for SI50 (CV-B3 in HeLa cells): SI50 = CC50/EC50.
The test system of the next assay is EV-A71. Briefly: antiviral CPE assay, anti-EV-A71 in LLC cells. The conditions noted are these: SI50 = CC50/EC50. Type of assay: cell-based, enterovirus 71 (EV-A71).

As to `O=C(Nc1ccc(F)cc1)c1cc(-c2cccs2)nc2c1cnn2C1CCCC1` [JX027, 1-Cyclopentyl-N-(4-fluorophenyl)-6-(thiophen-2-yl)-1H-pyrazolo[3,4-b]pyridine-4-carboxamide], in the assay on CV-B3 (CVB3-H3), the “antiviral activities against coxsackievirus B3 (CV-B3)” value (“antiviral activities” below) was “none of the above analogs demonstrated antiviral activities”.
Regarding `CC(C)n1ncc2c(C(=O)Nc3ccncn3)cc(-c3cccs3)nc21` [JX043, 1-Isopropyl-N-(pyrimidin-4-yl)-6-(thiophen-2-yl)-1H-pyrazolo[3,4-b]pyridine-4-carboxamide], the “SI50 (EV-A71 in LLC cells)” value in the assay on EV-A71 is “SI50: 100.0”. The “SI50 (CV-B3 in HeLa cells)” value in the assay on CV-B3 (CVB3-H3) is “SI50: 33.3”.
Turning to `CC(C)n1ncc2c(C(=O)Nc3ccc(F)cc3)cc(-c3cccs3)nc21` [JX017, N-(4-Fluorophenyl)-1-isopropyl-6-(thiophen-2-yl)-1H-pyrazolo[3,4-b]pyridine-4-carboxamide], the “SI50 (EV-A71 in LLC cells)” value with EV-A71 is recorded as “SI50: >222.2”. For the same compound, the “SI50 (CV-B3 in HeLa cells)” value with CV-B3 (CVB3-H3) is on record as “SI50: >285.7”.
For the compound `CC(C)n1ncc2c(C(=O)Nc3ccccc3F)cc(-c3cccnc3)nc21` [JX005, N-(2-Fluorophenyl)-1-isopropyl-6-(pyridin-3-yl)-1H-pyrazolo[3,4-b]pyridine-4-carboxamide], the “SI50 (CV-B3 in HeLa cells)” value with CV-B3 (CVB3-H3) is listed as “SI50: 5.4”.
On to `CC(C)n1ncc2c(C(=O)Nc3cccc(S(=O)(=O)N(C)C)c3)cc(-c3cccs3)nc21` [JX052, N-(3-(N,N-Dimethylsulfamoyl)phenyl)-1-isopropyl-6-(thiophen-2-yl)-1H-pyrazolo[3,4-b]pyridine-4-carboxamide], for which, in the assay with EV-A71, the “SI50 (EV-A71 in LLC cells)” value is reported as “SI50: >250.0”. In addition, the “SI50 (CV-B3 in HeLa cells)” value in the assay on CV-B3 (CVB3-H3) was “SI50: 12.0”.
Take `O=C(Nc1ccccc1F)c1cc(-c2cccs2)nc2c1cnn2CC(F)(F)F` [JX022, N-(2-Fluorophenyl)-6-(thiophen-2-yl)-1-(2,2,2-trifluoroethyl)-1H-pyrazolo[3,4-b]pyridine-4-carboxamide]: the “antiviral activities” value in the assay on CV-B3 (CVB3-H3) is on record as “none of the above analogs demonstrated antiviral activities”.
With `CC(C)n1ncc2c(C(=O)Nc3ccncn3)cc(-c3ccsc3)nc21` [JX059, 1-Isopropyl-N-(pyrimidin-4-yl)-6-(thiophen-3-yl)-1H-pyrazolo[3,4-b]pyridine-4-carboxamide], in the assay with EV-A71, the “SI50 (EV-A71 in LLC cells)” value was “SI50: >250.0”. Besides, the “SI50 (CV-B3 in HeLa cells)” value in the assay on CV-B3 (CVB3-H3) is on record as “SI50: >166.7”.
For `CC(C)n1ncc2c(C(=O)Nc3ccc(F)cn3)cc(-c3cccs3)nc21` [JX075, N-(5-Fluoropyridin-2-yl)-1-isopropyl-6-(thiophen-2-yl)-1H-pyrazolo[3,4-b]pyridine-4-carboxamide], in that order: “SI50: >166.7” and “SI50: 53.6”.
For `CC(C)n1ncc2c(C(=O)Nc3ncccn3)cc(-c3cccs3)nc21` [JX041, 1-Isopropyl-N-(pyrimidin-2-yl)-6-(thiophen-2-yl)-1H-pyrazolo[3,4-b]pyridine-4-carboxamide] the same measures were “SI50: 150.0” and “SI50: 62.5”.
With `CNS(=O)(=O)c1cccc(NC(=O)c2cc(-c3cccs3)nc3c2cnn3C(C)C)c1` [JX053, 1-Isopropyl-N-(3-(N-methylsulfamoyl)phenyl)-6-(thiophen-2-yl)-1H-pyrazolo[3,4-b]pyridine-4-carboxamide], the “SI50 (EV-A71 in LLC cells)” value in the assay with EV-A71 is “SI50: 35.7”. Besides, the “SI50 (CV-B3 in HeLa cells)” value in the assay with CV-B3 (CVB3-H3) is given as “SI50: 24.0”.
For `CC(C)n1ncc2c(C(=O)Nc3cc(F)ccc3F)cc(-c3cccs3)nc21` [JX018, N-(2,5-Difluorophenyl)-1-isopropyl-6-(thiophen-2-yl)-1H-pyrazolo[3,4-b]pyridine-4-carboxamide], in that order: “SI50: 28.6” and “SI50: >74.1”.
Turning to `CC(C)n1ncc2c(C(=O)Nc3ccccc3F)cc(-c3ccccn3)nc21` [JX004, N-(2-Fluorophenyl)-1-isopropyl-6-(pyridin-2-yl)-1H-pyrazolo[3,4-b]pyridine-4-carboxamide], the “SI50 (CV-B3 in HeLa cells)” value in the assay on CV-B3 (CVB3-H3) is given as “SI50: >29.0”.
As to `CC(C)n1ncc2c(C(=O)Nc3ccccc3F)cc(-c3ccccc3)nc21` [JX002, N-(2-Fluorophenyl)-1-isopropyl-6-phenyl-1H-pyrazolo[3,4-b]pyridine-4-carboxamide], the “SI50 (EV-A71 in LLC cells)” value with EV-A71 is recorded as “SI50: >35.1”. The “SI50 (CV-B3 in HeLa cells)” value in the assay with CV-B3 (CVB3-H3) is “SI50: 8.3”.
Take `CC(C)(C)n1ncc2c(C(=O)Nc3ccccc3F)cc(-c3cccs3)nc21` [JX013, 1-(tert-Butyl)-N-(2-fluorophenyl)-6-(thiophen-2-yl)-1H-pyrazolo[3,4-b]pyridine-4-carboxamide]: the “antiviral activities” value with CV-B3 (CVB3-H3) is “none of the above analogs demonstrated antiviral activities”.
With `CC(C)n1ncc2c(C(=O)Nc3c(F)cccc3F)cc(-c3cccs3)nc21` [JX009, N-(2,6-Difluorophenyl)-1-isopropyl-6-(thiophen-2-yl)-1H-pyrazolo[3,4-b]pyridine-4-carboxamide], in the assay with EV-A71, the “SI50 (EV-A71 in LLC cells)” value is listed as “SI50: >58.8”. The “SI50 (CV-B3 in HeLa cells)” value with CV-B3 (CVB3-H3) is given as “SI50: >62.5”.
For the compound `COc1ccc(Cn2ncc3c(C(=O)Nc4ccc(F)cc4)cc(-c4cccs4)nc32)cc1` [JX031, N-(4-Fluorophenyl)-1-(4-methoxybenzyl)-6-(thiophen-2-yl)-1H-pyrazolo[3,4-b]pyridine-4-carboxamide], the “antiviral activities” value with CV-B3 (CVB3-H3) is listed as “none of the above analogs demonstrated antiviral activities”.
On to `CC(C)n1ncc2c(C(=O)Nc3ccc(F)cc3F)cc(-c3cccs3)nc21` [JX008, N-(2,4-Difluorophenyl)-1-isopropyl-6-(thiophen-2-yl)-1H-pyrazolo[3,4-b]pyridine-4-carboxamide], for which the “SI50 (EV-A71 in LLC cells)” value in the assay on EV-A71 was “SI50: >125.0”. For the same compound, the “SI50 (CV-B3 in HeLa cells)” value in the assay with CV-B3 (CVB3-H3) was “SI50: >142.9”.
As to `CC(C)n1ccc2c(C(=O)Nc3ccc(F)cc3)cc(-c3cccs3)nc21` [JX037, N-(4-Fluorophenyl)-1-isopropyl-6-(thiophen-2-yl)-1H-pyrrolo[2,3-b]pyridine-4-carboxamide], the “SI50 (CV-B3 in HeLa cells)” value with CV-B3 (CVB3-H3) was “SI50: 64.5”.
For the compound `CC(C)n1ncc2c(C(=O)Nc3ccccn3)cc(-c3ccccc3)nc21` [JX070, 1-Isopropyl-6-phenyl-N-(pyridin-2-yl)-1H-pyrazolo[3,4-b]-pyridine-4-carboxamide], in the assay with EV-A71, the “SI50 (EV-A71 in LLC cells)” value is “SI50: 17.9”. In the assay with CV-B3 (CVB3-H3), the “SI50 (CV-B3 in HeLa cells)” value was “SI50: 11.8”.
For `CC(C)n1ccc2c(C(=O)Nc3ccccn3)cc(-c3cccs3)nc21` [JX072, 1-Isopropyl-N-(pyridin-2-yl)-6-(thiophen-2-yl)-1H-pyrrolo-[2,3-b]pyridine-4-carboxamide] the same measures were “SI50: >166.7” and “SI50: 8.5”.
As to `O=C(Nc1ccccc1F)c1cc(-c2cccs2)nc2c1cnn2-c1ccccc1` [JX012, N-(2-Fluorophenyl)-1-phenyl-6-(thiophen-2-yl)-1H-pyrazolo[3,4-b]pyridine-4-carboxamide], in the assay on CV-B3 (CVB3-H3), the “antiviral activities” value is recorded as “none of the above analogs demonstrated antiviral activities”.
In the case of `CC(C)n1ncc2c(C(=O)Nc3ccc(F)c(F)c3)cc(-c3cccs3)nc21` [JX015, N-(3,4-Difluorophenyl)-1-isopropyl-6-(thiophen-2-yl)-1H-pyrazolo[3,4-b]pyridine-4-carboxamide], the “SI50 (CV-B3 in HeLa cells)” value with CV-B3 (CVB3-H3) is listed as “SI50: >153.8”.
Regarding `CC(C)n1ncc2c(C(=O)Nc3cccnc3)cc(-c3ccsc3)nc21` [JX060, 1-Isopropyl-N-(pyridin-3-yl)-6-(thiophen-3-yl)-1H-pyrazolo-[3,4-b]pyridine-4-carboxamide], the “SI50 (EV-A71 in LLC cells)” value in the assay on EV-A71 is “SI50: 15.4”. Moreover, the “SI50 (CV-B3 in HeLa cells)” value in the assay on CV-B3 (CVB3-H3) was “SI50: 30.0”.
On to `CC(C)n1ncc2c(C(=O)Nc3ccccc3F)cc(-c3cncs3)nc21` [JX010, N-(2-Fluorophenyl)-1-isopropyl-6-(thiazol-5-yl)-1H-pyrazolo[3,4-b]pyridine-4-carboxamide], for which the “SI50 (EV-A71 in LLC cells)” value in the assay on EV-A71 was “SI50: 27.0”. Also, the “SI50 (CV-B3 in HeLa cells)” value in the assay on CV-B3 (CVB3-H3) is on record as “SI50: >60.6”.
For `CC(C)n1ncc2c(C(=O)Nc3ncccn3)cc(-c3ccsc3)nc21` [JX058, 1-Isopropyl-N-(pyrimidin-2-yl)-6-(thiophen-3-yl)-1H-pyrazolo[3,4-b]pyridine-4-carboxamide], in that order: “SI50: 41.7” and “SI50: 33.3”.
Take `O=C(Nc1ccc(F)cc1)c1cc(-c2cccs2)nc2c1cnn2C1CCCCCC1` [JX029, 1-Cycloheptyl-N-(4-fluorophenyl)-6-(thiophen-2-yl)-1H-pyrazolo[3,4-b]pyridine-4-carboxamide]: the “antiviral activities” value in the assay on CV-B3 (CVB3-H3) was “none of the above analogs demonstrated antiviral activities”.
As to `CC(C)n1ncc2c(C(=O)Nc3cccc(F)c3F)cc(-c3cccs3)nc21` [JX019, N-(2,3-Difluorophenyl)-1-isopropyl-6-(thiophen-2-yl)-1H-pyrazolo[3,4-b]pyridine-4-carboxamide], the “SI50 (EV-A71 in LLC cells)” value with EV-A71 is “SI50: 25.0”. Moreover, the “SI50 (CV-B3 in HeLa cells)” value in the assay on CV-B3 (CVB3-H3) was “SI50: >74.1”.
As to `CC(C)n1ncc2c(C(=O)Nc3ccccc3F)cc(-c3ccncc3)nc21` [JX003, N-(2-Fluorophenyl)-1-isopropyl-6-(pyridin-4-yl)-1H-pyrazolo[3,4-b]pyridine-4-carboxamide], the “SI50 (CV-B3 in HeLa cells)” value with CV-B3 (CVB3-H3) is on record as “SI50: 7.4”.
With `O=C(Nc1ccc(F)cc1)c1cc(-c2cccs2)nc2c1cnn2C1CCCCC1` [JX028, 1-Cyclohexyl-N-(4-fluorophenyl)-6-(thiophen-2-yl)-1H-pyrazolo[3,4-b]pyridine-4-carboxamide], in the assay with CV-B3 (CVB3-H3), the “antiviral activities” value is reported as “none of the above analogs demonstrated antiviral activities”.
As for `O=C(Nc1ccc(F)cc1)c1cc(-c2cccs2)nc2[nH]ncc12` [JX032, N-(4-Fluorophenyl)-6-(thiophen-2-yl)-1H-pyrazolo[3,4-b]-pyridine-4-carboxamide], the “antiviral activities” value in the assay with CV-B3 (CVB3-H3) is reported as “none of the above analogs demonstrated antiviral activities”.
`O=C(Nc1ccccc1F)c1cc(-c2cccs2)nc2c1cnn2C1CCC1` [JX014, 1-Cyclobutyl-N-(2-fluorophenyl)-6-(thiophen-2-yl)-1H-pyrazolo[3,4-b]pyridine-4-carboxamide]: the “antiviral activities” value in the assay with CV-B3 (CVB3-H3) is given as “none of the above analogs demonstrated antiviral activities”.
